According to patent US20230346827A1 (priority 2020, published 2023):

Tested on: rats subjected to sTBI
Experiment: sTBI rats, LMW-DS 1, 5, 15 mg/kg s.c. 30 min post-TBI: HPLC of brain energy metabolites, antioxidants, oxidative/nitrosative stress biomarkers (Example 4)
Type: in vivo, rat
Description: Male Wistar rats (n=160) of 300-350 g body weight were used in this study. They were fed with standard laboratory diet and water ad libitum in a controlled environment.
As the accepted anesthetic mixture, animals received 35 mg/kg b.w. ketamine and 0.25 mg/kg body weight midazolam by intramuscular injection. Diffuse sTBI was induced according to the “weight drop” impact acceleration model set up by Marmarou et al. J. Neurosurg. 1994, 80: 291-300. This model causes diffuse axonal injury and it is able to reproduce the physical and mechanical characteristics of the diffuse TBI in humans.
Severe TBI was induced by dropping a 450 g weight from 2 meters height onto the rat head protected by a helmet (metal disk previously fixed on the skull using dental cement) in order to uniformly distribute the mechanical force to the brain. Rats were placed prone on a bed of specific polyurethane foam inserted in a special container; this foam dissipates the major part of the potential energy (deriving from the mechanical forces) and prevents any rebound of the animal after the impact that could produce spinal damages.
After 2 or 7 days from TBI induction, rats were anesthetized again and then immediately sacrificed. These time points are coincident with the worst biochemical derangement (2 days) or, in the case of a mildly injured brain, with a full metabolic recovery (7 days).
The drug treatment consisted in a subcutaneous injection of 0.5 ml of LMW-DS (ILB®, Tikomed, Viken, Sweden, WO 2016/076780) and administered at 3 different concentrations (1, 5 and 15 mg/kg body weight), according to the schematic protocol described below. Sham-operated animals underwent the same procedure of anesthesia but TBI and were used as the control group.
(§1) Rats subjected to sTBI and receiving a single administration of LMW-DS after 30 minutes post-TBI, with sacrifice at 2 days post-TBI. Animals were divided in the following subgroups: • 1. 12 animals subjected to sTBI and treated with 1 mg/kg b.w. LMW-DS • 2. 12 animals subjected to sTBI and treated with 5 mg/kg b.w. LMW-DS • 3. 12 animals subjected to sTBI and treated with 15 mg/kg b.w. LMW-DS
as §1, with “at 7” for “at 2”
Rats (n = 12) subjected to sTBI and receiving repeated administrations of the maximal dose of LMW-DS (15 mg/kg b.w.) after 30 minutes, 3 days and 5 days post-TBI, with sacrifice at 7 days post-TBI. Four additional rats were used for the histo-morphological studies. Total rats in this group: n=16
To minimize metabolite loss, an in vivo craniectomy was performed in all animals during anesthesia. The rat skull was carefully removed, the brain was exposed, sharply cut along the sagittal fissure and the two hemispheres were separated. The hemispheres dedicated to biochemical analyses were freeze-clamped by aluminum tongues pre-cooled in liquid nitrogen and then immersed in liquid nitrogen. The freeze-clamping procedure was introduced to accelerate freezing of the tissue, thus minimizing potential metabolite loss.
Tissue homogenization for metabolite analyses was effected as described below. After the wet weight (w.w.) determination, the frozen hemispheres were placed into 7 ml of ice-cold, nitrogen-saturated, precipitating solution (1:10 w/v) composed by CH3CN + 10 mM KH2PO4, pH 7.40, (3:1; v:v), and the homogenization was performed using an Ultra-Turrax homogenizer set at 24,000 rpm/min (Janke & Kunkel, Staufen, Germany). […]

[1] = 15 mg/kg, 7 d post-sTBI, adimensional ratio

sodium salt of dextran sulfate [LMW-DS]
GDP (15 mg/kg, 2 d post-sTBI): 194.61 ± 26.88 nmol/g w.w. | GDP Glucose (15 mg/kg, 2 d post-sTBI): 84.24 ± 37.54 nmol/g w.w. | GMP (15 mg/kg, 2 d post-sTBI): 178.88 ± 22.46 nmol/g w.w. | GSH (15 mg/kg, 2 d post-sTBI): 2418.94 ± 352.75 nmol/g w.w. | GTP (15 mg/kg, 2 d post-sTBI): 179.07 ± 18.89 nmol/g w.w. | GUANINE (15 mg/kg, 2 d post-sTBI): 1.61 ± 0.40 nmol/g w.w. | GUANOSINE (15 mg/kg, 2 d post-sTBI): 24.35 ± 4.05 nmol/g w.w. | HYPOXANTHINE (15 mg/kg, 2 d post-sTBI): 6.82 ± 1.12 nmol/g w.w. | IMP (15 mg/kg, 2 d post-sTBI): 68.95 ± 12.98 nmol/g w.w. | INOSINE (15 mg/kg, 2 d post-sTBI): 142.91 ± 18.63 nmol/g w.w. | MDA (15 mg/kg, 2 d post-sTBI): 18.28 ± 2.98 nmol/g w.w. | Malonyl-CoA (15 mg/kg, 2 d post-sTBI): 28.73 ± 6.09 nmol/g w.w. | NADH (15 mg/kg, 2 d post-sTBI): 10.83 ± 1.58 nmol/g w.w. | NADPH (15 mg/kg, 2 d post-sTBI): 8.93 ± 0.74 nmol/g w.w. | NADP^+ (15 mg/kg, 2 d post-sTBI): 17.75 ± 4.06 nmol/g w.w. | NAD^+ (15 mg/kg, 2 d post-sTBI): 475.32 ± 80.91 nmol/g w.w. | NO2 (15 mg/kg, 2 d post-sTBI): 72.29 ± 8.71 nmol/g w.w. | NO3 (15 mg/kg, 2 d post-sTBI): 56.50 ± 12.30 nmol/g w.w. | UDP (15 mg/kg, 2 d post-sTBI): 80.00 ± 8.20 nmol/g w.w. | UDP-Gal (15 mg/kg, 2 d post-sTBI): 116.34 ± 9.71 nmol/g w.w. | UDP-GalNac (15 mg/kg, 2 d post-sTBI): 22.37 ± 3.30 nmol/g w.w. | UDP-Glc (15 mg/kg, 2 d post-sTBI): 43.41 ± 6.43 nmol/g w.w. | UDP-GlcNac (15 mg/kg, 2 d post-sTBI): 108.74 ± 9.90 nmol/g w.w. | UMP (15 mg/kg, 2 d post-sTBI): 147.53 ± 20.38 nmol/g w.w. | URACIL (15 mg/kg, 2 d post-sTBI): 15.55 ± 3.04 nmol/g w.w. | URIC ACID (15 mg/kg, 2 d post-sTBI): 26.00 ± 5.33 nmol/g w.w. | URIDINE (15 mg/kg, 2 d post-sTBI): 87.55 ± 15.41 nmol/g w.w. | UTP (15 mg/kg, 2 d post-sTBI): 108.21 ± 16.99 nmol/g w.w. | XANTHINE (15 mg/kg, 2 d post-sTBI): 13.87 ± 1.44 nmol/g w.w. | β-PSEUDOURIDINE (15 mg/kg, 2 d post-sTBI): 7.84 ± 1.57 nmol/g w.w. | NAD^+/NADH (15 mg/kg, 2 d post-sTBI, adimensional ratio): 44.40 ± 7.67 | ADENOSINE (15 mg/kg, 7 d post-sTBI): 55.95 ± 41.44 nmol/g w.w. | ADP (15 mg/kg, 7 d post-sTBI): 276.83 ± 36.87 nmol/g w.w. | ADP-Ribose (15 mg/kg, 7 d post-sTBI): 19.21 ± 4.82 nmol/g w.w. | AMP (15 mg/kg, 7 d post-sTBI): 50.50 ± 3.97 nmol/g w.w. | ASCORBIC ACID (15 mg/kg, 7 d post-sTBI): 2853.35 ± 343.64 nmol/g w.w. | ATP (15 mg/kg, 7 d post-sTBI): 1846.63 ± 148.55 nmol/g w.w. | Acetyl-CoA (15 mg/kg, 7 d post-sTBI): 38.60 ± 6.57 nmol/g w.w. | CDP choline (15 mg/kg, 7 d post-sTBI): 10.06 ± 3.23 nmol/g w.w. | CMP (15 mg/kg, 7 d post-sTBI): 47.10 ± 20.04 nmol/g w.w. | CREATININE (15 mg/kg, 7 d post-sTBI): 5.23 ± 0.92 nmol/g w.w. | CTP (15 mg/kg, 7 d post-sTBI): 96.44 ± 25.54 nmol/g w.w. | CYTIDINE (15 mg/kg, 7 d post-sTBI): 33.06 ± 11.63 nmol/g w.w. | CYTOSINE (15 mg/kg, 7 d post-sTBI): 13.87 ± 2.98 nmol/g w.w. | CoA-SH (15 mg/kg, 7 d post-sTBI): 64.93 ± 8.33 nmol/g w.w. | GDP (15 mg/kg, 7 d post-sTBI): 122.07 ± 13.95 nmol/g w.w. | GDP Glucose (15 mg/kg, 7 d post-sTBI): 101.65 ± 11.89 nmol/g w.w. | GMP (15 mg/kg, 7 d post-sTBI): 41.55 ± 19.66 nmol/g w.w. | GSH (15 mg/kg, 7 d post-sTBI): 2390.89 ± 315.16 nmol/g w.w. | GTP (15 mg/kg, 7 d post-sTBI): 479.98 ± 43.64 nmol/g w.w. | GUANINE (15 mg/kg, 7 d post-sTBI): 5.27 ± 2.24 nmol/g w.w. | GUANOSINE (15 mg/kg, 7 d post-sTBI): 20.91 ± 4.36 nmol/g w.w. | HYPOXANTHINE (15 mg/kg, 7 d post-sTBI): 10.21 ± 2.97 nmol/g w.w. | IMP (15 mg/kg, 7 d post-sTBI): 74.70 ± 19.13 nmol/g w.w. | INOSINE (15 mg/kg, 7 d post-sTBI): 104.41 ± 11.72 nmol/g w.w. | MDA (15 mg/kg, 7 d post-sTBI): 6.23 ± 1.03 nmol/g w.w. | Malonyl-CoA (15 mg/kg, 7 d post-sTBI): 7.98 ± 1.44 nmol/g w.w. | NADH (15 mg/kg, 7 d post-sTBI): 11.65 ± 1.63 nmol/g w.w. | NADPH (15 mg/kg, 7 d post-sTBI): 6.66 ± 1.55 nmol/g w.w. | NADP^+ (15 mg/kg, 7 d post-sTBI): 23.75 ± 8.72 nmol/g w.w. | NAD^+ (15 mg/kg, 7 d post-sTBI): 491.52 ± 69.61 nmol/g w.w. | NO2 (15 mg/kg, 7 d post-sTBI): 110.72 ± 23.99 nmol/g w.w. | NO3 (15 mg/kg, 7 d post-sTBI): 161.99 ± 27.67 nmol/g w.w. | UDP (15 mg/kg, 7 d post-sTBI): 37.91 ± 5.33 nmol/g w.w. | UDP-Gal (15 mg/kg, 7 d post-sTBI): 137.57 ± 9.46 nmol/g w.w. | UDP-GalNac (15 mg/kg, 7 d post-sTBI): 17.91 ± 5.13 nmol/g w.w. | UDP-Glc (15 mg/kg, 7 d post-sTBI): 62.97 ± 12.80 nmol/g w.w. | UDP-GlcNac (15 mg/kg, 7 d post-sTBI): 67.47 ± 23.34 nmol/g w.w. | UMP (15 mg/kg, 7 d post-sTBI): 181.82 ± 35.22 nmol/g w.w. | URACIL (15 mg/kg, 7 d post-sTBI): 15.92 ± 3.27 nmol/g w.w. | URIC ACID (15 mg/kg, 7 d post-sTBI): 8.60 ± 2.05 nmol/g w.w. | URIDINE (15 mg/kg, 7 d post-sTBI): 134.04 ± 31.76 nmol/g w.w. | UTP (15 mg/kg, 7 d post-sTBI): 127.42 ± 22.32 nmol/g w.w. | XANTHINE (15 mg/kg, 7 d post-sTBI): 12.71 ± 3.60 nmol/g w.w. | β-PSEUDOURIDINE (15 mg/kg, 7 d post-sTBI): 63.77 ± 11.83 nmol/g w.w. | ATP/ADP [1]: 6.76 ± 0.86 | NAD+/NADH [1]: 42.51 ± 5.26 | whole brain NAA (5 or 15 mg/kg b.w., 2 days post impact): significantly higher than values found in sTBI rats | ATP levels, % lower than the value of controls (7 days post impact): 16% | NAA concentration, % lower than the value of controls (7 days post impact): 16% | whole brain NAA (increasing single doses or repeat maximal dose, 7 days post sTBI): dose dependent increase
